# From US10287301B2 (Achillion Pharmaceuticals, Inc., priority 2015, dated 2019)
# Molecular target: Human Factor D (Homo sapiens (Human), UniProt P00746)
# Assay: Human Factor D Assay
# Assay type: biochemical
# Conditions: Human Factor D, Table 3; read-out: IC50
# In short: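 Serum-purified human Factor D (80 nM final) was preincubated with test compound at various concentrations for 5 min at room temperature in 50 mM Tris, 1M NaCl, pH 7.5. Z-L-Lys-SBzl and DTNB were then added at 100 μM each. IC50 came from nonlinear regression of reaction rates versus compound concentration.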
# Sequence of Human Factor D (P00746 26-253): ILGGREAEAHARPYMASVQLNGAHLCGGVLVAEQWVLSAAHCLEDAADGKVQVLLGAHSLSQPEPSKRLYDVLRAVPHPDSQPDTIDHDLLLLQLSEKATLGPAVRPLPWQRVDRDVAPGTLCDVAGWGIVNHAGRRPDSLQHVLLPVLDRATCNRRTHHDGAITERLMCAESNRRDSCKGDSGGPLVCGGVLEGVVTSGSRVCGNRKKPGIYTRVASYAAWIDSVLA
row,Structure (SMILES),IC50 [µM]
1,"COc1ncc(-c2ccc3c(c2)c(C(C)=O)nn3CC(=O)N2C[C@H]3C[C@H]3[C@H]2C(=O)Nc2nc(Br)ccc2C2CC2)cn1 [Compound 641, (1R,2S,5S)-3-(2-(3-Acetyl-5-(2-methoxypyrimidin-5-yl)-1H-indazol-1-yl)acetyl)-N-(6-bromo-3-cyclopropylpyridin-2-yl)-3-azabicyclo[3.1.0]hexane-2-carboxamide]",< 1
2,"CC(=O)c1nn(CC(=O)N2C[C@@H](C)C[C@H]2C(=O)Nc2nc(Br)ccc2C)c2ccc(-c3cnc(C)nc3)cc12 [Compound 643, (2S,4S)-1-(2-(3-Acetyl-5-(2-methylpyrimidin-5-yl)-1H-indazol-1-yl)acetyl)-N-(6-bromo-3-methylpyridin-2-yl)-4-methylpyrrolidine-2-carboxamide]",< 1
3,"CC(=O)c1nn(CC(=O)N2C[C@H](C)C[C@H]2C(=O)Nc2nc(Br)ccc2C)c2ccc(-c3cnc(C)nc3)cc12 [Compound 644, (2S,4R)-1-(2-(3-Acetyl-5-(2-methylpyrimidin-5-yl)-1H-indazol-1-yl)acetyl)-N-(6-bromo-3-methylpyridin-2-yl)-4-methylpyrrolidine-2-carboxamide]",< 1
4,"CC(=O)c1nn(CC(=O)N2C[C@@](F)(CN(C)C)C[C@H]2C(=O)Nc2nc(Br)ccc2C)c2ccc(-c3cnc(C)nc3)cc12 [Compound 645, (2S,4S)-1-(2-(3-Acetyl-5-(2-methylpyrimidin-5-yl)-1H-indazol-1-yl)acetyl)-N-(6-bromo-3-methylpyridin-2-yl)-4-((dimethylamino)methyl)-4-fluoropyrrolidine-2-carboxamide]",< 1
5,"CC(=O)c1nn(CC(=O)N2[C@@H](C)CC[C@H]2C(=O)Nc2nc(Br)ccc2C)c2ccc(-c3cnc(C)nc3)cc12 [Compound 646, (2S,5S)-1-(2-(3-Acetyl-5-(2-methylpyrimidin-5-yl)-1H-indazol-1-yl)acetyl)-N-(6-bromo-3-methylpyridin-2-yl)-5-methylpyrrolidine-2-carboxamide]",< 1
6,"CC(=O)c1nn(CC(=O)N2[C@H](C(=O)Nc3nc(Br)ccc3C)C[C@@H]3C[C@@H]32)c2ccc(-c3cnc(C)nc3)cc12 [Compound 647, (1S,3S,5S)-2-(2-(3-Acetyl-5-(2-methylpyrimidin-5-yl)-1H-indazol-1-yl)acetyl)-N-(6-bromo-3-methylpyridin-2-yl)-2-azabicyclo[3.1.0]hexane-3-carboxamide]",< 1
7,"CC(=O)c1nn(CC(=O)N2C[C@H](F)C[C@@H]2C(=O)Nc2nc(Br)ccc2C(=O)O)c2ccc(-c3cnc(C)nc3)cc12 [Compound 648, 2-((2R,4R)-1-(2-(3-Acetyl-5-(2-methylpyrimidin-5-yl)-1H-indazol-1-yl)acetyl)-4-fluoropyrrolidine-2-carboxamido)-6-bromonicotinic acid]",> 10
8,"CC(=O)c1nn(CC(=O)N2C[C@H](F)C[C@H]2C(=O)Nc2cccc(Br)n2)c2ccc(-c3cnc(Cl)nc3)cc12 [Compound 651, (2S,4R)-1-(2-(3-Acetyl-5-(2-chloropyrimidin-5-yl)-1H-indazol-1-yl)acetyl)-N-(6-bromopyridin-2-yl)-4-fluoropyrrolidine-2-carboxamide]",> 10
9,"CC(=O)c1nn(CC(=O)N2C[C@H]3C[C@H]3[C@H]2C(=O)Nc2nc(Br)ccc2C)c2c(C)cc(-c3cnc(C)nc3)cc12 [Compound 652, (1R,2S,5S)-3-(2-(3-Acetyl-7-methyl-5-(2-methylpyrimidin-5-yl)-1H-indazol-1-yl)acetyl)-N-(6-bromo-3-methylpyridin-2-yl)-3-azabicyclo[3.1.0]hexane-2-carboxamide]",< 1
10,"CC(=O)c1nn(CC(=O)N2C[C@H](F)C[C@H]2C(=O)Nc2cncc(Br)n2)c2ccc(-c3ccc4nc(C)cn4c3)cc12 [Compound 654, (2S,4R)-1-(2-(3-Acetyl-5-(2-methylimidazo[1,2-a]pyridin-6-yl)-1H-indazol-1-yl)acetyl)-N-(6-bromopyrazin-2-yl)-4-fluoropyrrolidine-2-carboxamide]",< 1
11,"CC(=O)c1nn(CC(=O)N2C[C@H](F)C[C@H]2C(=O)Nc2cncc(Br)n2)c2ccc(-c3cnc4cc(C5CC5)nn4c3)cc12 [Compound 655, (2S,4R)-1-(2-(3-Acetyl-5-(2-cyclopropylpyrazolo[1,5-a]pyrimidin-6-yl)-1H-indazol-1-yl)acetyl)-N-(6-bromopyrazin-2-yl)-4-fluoropyrrolidine-2-carboxamide]",< 1
12,"CC(=O)c1cn(CC(=O)N2C[C@H](F)C[C@H]2C(=O)Nc2cccc(OC(F)(F)F)n2)c2ccc(-c3cnc4cc(C)nn4c3)cc12 [Compound 656, (2S,4R)-1-(2-(3-Acetyl-5-(2-methylpyrazolo[1,5-a]pyrimidin-6-yl)-1H-indol-1-yl)acetyl)-4-fluoro-N-(6-(trifluoromethoxy)pyridin-2-yl)pyrrolidine-2-carboxamide]",< 1
13,"CC(=O)c1cn(CC(=O)N2C[C@H](F)C[C@H]2C(=O)Nc2cc(C)cc(Br)n2)c2ccc(-c3cnc4cc(C)nn4c3)cc12 [Compound 657, (2S,4R)-1-(2-(3-Acetyl-5-(2-methylpyrazolo[1,5-a]pyrimidin-6-yl)-1H-indol-1-yl)acetyl)-N-(6-bromo-4-methylpyridin-2-yl)-4-fluoropyrrolidine-2-carboxamide]",< 1
14,"CC(=O)c1nn(CC(=O)N2C[C@H](F)C[C@H]2C(=O)Nc2cccc(OC(F)F)n2)c2ccc(-c3cnc4cc(C)nn4c3)cc12 [Compound 658, (2S,4R)-1-(2-(3-Acetyl-5-(2-methylpyrazolo[1,5-a]pyrimidin-6-yl)-1H-indazol-1-yl)acetyl)-N-(6-(difluoromethoxy)pyridin-2-yl)-4-fluoropyrrolidine-2-carboxamide]",< 1
15,"CC(=O)c1nn(CC(=O)N2[C@@H]3C[C@@H]3C[C@H]2C(=O)Nc2cncc(Br)n2)c2ccc(-c3ccc4nc(C)nn4c3)cc12 [Compound 659, (1R,3S,5R)-2-(2-(3-Acetyl-5-(2-methyl-[1,2,4]triazolo[1,5-a]pyridin-6-yl)-1H-indazol-1-yl)acetyl)-N-(6-bromopyrazin-2-yl)-2-azabicyclo[3.1.0]hexane-3-carboxamide]",< 1
16,"CC(=O)c1nn(CC(=O)N2[C@@H]3C[C@@H]3C[C@H]2C(=O)Nc2cccc(Br)n2)c2ccc(-c3ccc4nc(C)nn4c3)cc12 [Compound 660, (1R,3S,5R)-2-(2-(3-Acetyl-5-(2-methyl-[1,2,4]triazolo[1,5-a]pyridin-6-yl)-1H-indazol-1-yl)acetyl)-N-(6-bromopyridin-2-yl)-2-azabicyclo[3.1.0]hexane-3-carboxamide]",< 1
17,"CC(=O)c1nn(CC(=O)N2C[C@H](F)C[C@H]2C(=O)Nc2cnc(C)c(Br)n2)c2ccc(-c3cnc4cc(C)nn4c3)cc12 [Compound 662, (2S,4R)-1-(2-(3-Acetyl-5-(2-methylpyrazolo[1,5-a]pyrimidin-6-yl)-1H-indazol-1-yl)acetyl)-N-(6-bromo-5-methylpyrazin-2-yl)-4-fluoropyrrolidine-2-carboxamide]",< 1
18,"CC(=O)c1nn(CC(=O)N2C[C@H](F)C[C@H]2C(=O)Nc2cnc(C)c(Br)n2)c2ccc(-c3ccc4nc(C)nn4c3)cc12 [Compound 663, (2S,4R)-1-(2-(3-Acetyl-5-(2-methyl-[1,2,4]triazolo[1,5-a]pyridin-6-yl)-1H-indazol-1-yl)acetyl)-N-(6-bromo-5-methylpyrazin-2-yl)-4-fluoropyrrolidine-2-carboxamide]",< 1
19,"CC(=O)c1nn(CC(=O)N2[C@@H]3C[C@@H]3C[C@H]2C(=O)Nc2cncc(Br)n2)c2ccc(-c3cnc4ccnn4c3)cc12 [Compound 664, (1R,3S,5R)-2-(2-(3-Acetyl-5-(pyrazolo[1,5-a]pyrimidin-6-yl)-1H-indazol-1-yl)acetyl)-N-(6-bromopyrazin-2-yl)-2-azabicyclo[3.1.0]hexane-3-carboxamide]",< 1
20,"CC(=O)c1nn(CC(=O)N2C[C@H](F)C[C@H]2C(=O)Nc2cnc(C)c(Br)n2)c2ccc(-c3cnc4ccnn4c3)cc12 [Compound 665, (2S,4R)-1-(2-(3-Acetyl-5-(pyrazolo[1,5-a]pyrimidin-6-yl)-1H-indazol-1-yl)acetyl)-N-(6-bromo-5-methylpyrazin-2-yl)-4-fluoropyrrolidine-2-carboxamide]",< 1
21,"CC(=O)c1nn(CC(=O)N2[C@@H]3C[C@@H]3C[C@H]2C(=O)Nc2cnc(C)c(Br)n2)c2ccc(-c3cnc4cc(C)nn4c3)cc12 [Compound 666, (1R,3S,5R)-2-(2-(3-Acetyl-5-(2-methylpyrazolo[1,5-a]pyrimidin-6-yl)-1H-indazol-1-yl)acetyl)-N-(6-bromo-5-methylpyrazin-2-yl)-2-azabicyclo[3.1.0]hexane-3-carboxamide]",< 1
22,"CC(=O)c1nn(CC(=O)N2[C@@H]3C[C@@H]3C[C@H]2C(=O)Nc2cnc(C)c(Br)n2)c2ccc(-c3cnc4ccnn4c3)cc12 [Compound 667, (1R,3S,5R)-2-(2-(3-Acetyl-5-(pyrazolo[1,5-a]pyrimidin-6-yl)-1H-indazol-1-yl)acetyl)-N-(6-bromo-5-methylpyrazin-2-yl)-2-azabicyclo[3.1.0]hexane-3-carboxamide]",< 1
23,"CC(=O)c1nn(CC(=O)N2C[C@H](F)C[C@H]2C(=O)Nc2cccc(OC(F)(F)F)n2)c2ccc(-c3cnc4ccnn4c3)cc12 [Compound 668, (2S,4R)-1-(2-(3-Acetyl-5-(pyrazolo[1,5-a]pyrimidin-6-yl)-1H-indazol-1-yl)acetyl)-4-fluoro-N-(6-(trifluoromethoxy)pyridin-2-yl)pyrrolidine-2-carboxamide]",< 1
24,"CC(=O)c1nn(CC(=O)N2[C@@H]3C[C@@H]3C[C@H]2C(=O)Nc2cncc(Br)n2)c2ccc(-c3cnc4cc(C5CC5)nn4c3)cc12 [Compound 669, (1R,3S,5R)-2-(2-(3-Acetyl-5-(2-cyclopropylpyrazolo[1,5-a]pyrimidin-6-yl)-1H-indazol-1-yl)acetyl)-N-(6-bromopyrazin-2-yl)-2-azabicyclo[3.1.0]hexane-3-carboxamide]",< 1
